Some results are limits rather than exact numbers.

The target of this assay is human TYK2 (JH2domain-pseudokinase) (Homo sapiens (Human), UniProt P29597). Briefly: TYK2 JH2 Domain Binding Assay (KINOMEscan). The settings on record: Table 4, JH2 binding assay; read-out: JH2 Kd.
Sequence of human TYK2 (JH2domain-pseudokinase) (P29597 556-888): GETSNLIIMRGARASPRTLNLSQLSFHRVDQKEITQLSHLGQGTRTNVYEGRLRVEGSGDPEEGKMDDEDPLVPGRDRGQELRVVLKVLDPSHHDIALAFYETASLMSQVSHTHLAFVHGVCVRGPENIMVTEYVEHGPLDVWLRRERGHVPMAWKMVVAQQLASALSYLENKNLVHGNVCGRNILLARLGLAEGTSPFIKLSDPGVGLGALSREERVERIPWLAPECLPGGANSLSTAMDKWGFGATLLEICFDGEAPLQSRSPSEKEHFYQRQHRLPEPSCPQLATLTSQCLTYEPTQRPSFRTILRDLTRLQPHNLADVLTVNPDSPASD
A word on the Kd: it is the constant that tells how readily two partners part at equilibrium. Regarding `COCc1ccc(Nc2cc(Nc3ccc(C(=O)N4CCCC4)c(C(F)(F)F)n3)nc3[nH]n(C)c(=O)c23)c(OC)c1` [Compound I-92, 4-((2-methoxy-4-(methoxymethyl)phenyl)amino)-2-methyl-6-((5-(pyrrolidine-1-carbonyl)-6-(trifluoromethyl)pyridin-2-yl)amino)-1,2-dihydro-3H-pyrazolo[3,4-b]pyridin-3-one], the equilibrium dissociation constant (Kd) was in the range of 0.1 to 0.5 nM. As for `COCc1ccc(Nc2cc(Nc3ccc(C)c(C(F)(F)F)n3)nc3[nH]n(C)c(=O)c23)c(OC)c1` [Compound I-93, 4-((2-methoxy-4-(methoxymethyl)phenyl)amino)-2-methyl-6-((5-methyl-6-(trifluoromethyl)pyridin-2-yl)amino)-1,2-dihydro-3H-pyrazolo[3,4-b]pyridin-3-one], the Kd is 1 to 10 nM. Take `COc1c(F)cccc1Nc1cc(Nc2cccc(N3CC(OC)C3)n2)nc2[nH]n(C)c(=O)c12` [Compound I-94, 4-((3-fluoro-2-methoxyphenyl)amino)-6-((6-(3-methoxyazetidin-1-yl)pyridin-2-yl)amino)-2-methyl-1,2-dihydro-3H-pyrazolo[3,4-b]pyridin-3-one]: the Kd fell in the range of 1 to 10 nM. On to `COc1c(Cl)cccc1Nc1cc(Nc2cc(C)c(F)cn2)nc2[nH]n(C)c(=O)c12` [Compound I-95, 4-((3-chloro-2-methoxyphenyl)amino)-6-((5-fluoro-4-methylpyridin-2-yl)amino)-2-methyl-1,2-dihydro-3H-pyrazolo[3,4-b]pyridin-3-one], for which the Kd lay in the range of 1 to 10 nM. With `COc1c(Cl)cccc1Nc1cc(Nc2cc(C)nc(C)n2)nc2[nH]n(C)c(=O)c12` [Compound I-96, 4-((3-chloro-2-methoxyphenyl)amino)-6-((2,6-dimethylpyrimidin-4-yl)amino)-2-methyl-1,2-dihydro-3H-pyrazolo[3,4-b]pyridin-3-on], the dissociation constant (Kd) was in the range of 0.1 to 0.5 nM. On to `COCc1ccnc(Nc2cc(Nc3cccc(Cl)c3OC)c3c(=O)n(C)[nH]c3n2)c1` [Compound I-97, 4-((3-chloro-2-methoxyphenyl)amino)-6-((4-(methoxymethyl)pyridin-2-yl)amino)-2-methyl-1,2-dihydro-3H-pyrazolo[3,4-b]pyridin-3-one], for which the Kd was in the range of 0.5 to 1 nM. `COc1c(Cl)cccc1Nc1cc(Nc2ccc(C#N)cn2)nc2[nH]n(C)c(=O)c12` [Compound I-98, 6-((4-((3-chloro-2-methoxyphenyl)amino)-2-methyl-3-oxo-2,3-dihydro-1H-pyrazolo[3,4-b]pyridin-6-yl)amino)nicotinonitrile]: the Kd was 0.5 to 1 nM. `COc1c(Cl)cccc1Nc1cc(Nc2cccc(C#N)n2)nc2[nH]n(C)c(=O)c12` [Compound I-99, 6-((4-((3-chloro-2-methoxyphenyl)amino)-2-methyl-3-oxo-2,3-dihydro-1H-pyrazolo[3,4-b]pyridin-6-yl)amino)picolinonitrile]: the Kd fell in the range of 0.5 to 1 nM. `[2H]C([2H])([2H])n1[nH]c2nc(NC(=O)C3CC3)cc(Nc3cccc(-c4nnn(C)n4)c3OC)c2c1=O` [Compound I-100]: the Kd was less than 0.1 nM. For `COc1c(Cl)cccc1Nc1cc(Nc2cc(CO)ccn2)nc2[nH]n(C)c(=O)c12` [Compound I-101, 4-((3-chloro-2-methoxyphenyl)amino)-6-((4-(hydroxymethyl)pyridin-2-yl)amino)-2-methyl-1,2-dihydro-3H-pyrazolo[3,4-b]pyridin-3-one], the dissociation constant Kd was 1 to 10 nM. Consider `COc1c(Nc2cc(NC(=O)C3CC3)nc3[nH]n(C)c(=O)c23)cccc1C(N)=O` [Compound I-102, 3-((6-(cyclopropanecarboxamido)-2-methyl-3-oxo-2,3-dihydro-1H-pyrazolo[3,4-b]pyridin-4-yl)amino)-2-methoxybenzamide], for which the dissociation constant Kd was greater than 10 nM. As for `COc1c(Nc2cc(Nc3cc(C)nc(C)n3)nc3[nH]n(C)c(=O)c23)cccc1C(N)=O` [Compound I-103, 3-((6-((2,6-dimethylpyrimidin-4-yl)amino)-2-methyl-3-oxo-2,3-dihydro-1H-pyrazolo[3,4-b]pyridin-4-yl)amino)-2-methoxybenzamide], the dissociation constant Kd was greater than 10 nM. Regarding `COCc1ccc(Nc2cc(Nc3ccc(OC)c(C(F)(F)F)n3)nc3[nH]n(C)c(=O)c23)c(OC)c1` [Compound I-104, 4-((2-methoxy-4-(methoxymethyl)phenyl)amino)-6-((5-methoxy-6-(trifluoromethyl)pyridin-2-yl)amino)-2-methyl-1,2-dihydro-3H-pyrazolo[3,4-b]pyridin-3-one], the equilibrium dissociation constant (Kd) is greater than 10 nM.

For the compound `COc1c(Cl)cccc1Nc1cc(Nc2ccc(C)nn2)nc2[nH]n(C)c(=O)c12` [Compound I-105, 4-((3-chloro-2-methoxyphenyl)amino)-2-methyl-6-((6-methylpyridazin-3-yl)amino)-1,2-dihydro-3H-pyrazolo[3,4-b]pyridin-3-one], the dissociation constant (Kd) is 1 to 10 nM. Turning to `COc1c(Nc2cc(Nc3cc(C)c(F)cn3)nc3[nH]n(C)c(=O)c23)cccc1C(N)=O` [Compound I-106], the dissociation constant (Kd) lay within 1 to 10 nM.

Take `Cc1cc(Nc2cc(Nc3ccccc3S(C)(=O)=O)c3c(=O)n(C)[nH]c3n2)ncc1F` [Compound I-107, 6-((5-fluoro-4-methylpyridin-2-yl)amino)-2-methyl-4-((2-(methylsulfonyl)phenyl)amino)-1,2-dihydro-3H-pyrazolo[3,4-b]pyridin-3-one]: the Kd was in the range of 0.1 to 0.5 nM. The value for `Cc1cc(Nc2cc(Nc3ccccc3S(C)(=O)=O)c3c(=O)n(C)[nH]c3n2)nc(C)n1` [Compound I-108, 6-((2,6-dimethylpyrimidin-4-yl)amino)-2-methyl-4-((2-(methylsulfonyl)phenyl)amino)-1,2-dihydro-3H-pyrazolo[3,4-b]pyridin-3-one] was 0.1 to 0.5 nM; that for `Cc1ccc(Nc2cc(Nc3ccccc3S(C)(=O)=O)c3c(=O)n(C)[nH]c3n2)nn1` [Compound I-109, 2-methyl-6-((6-methylpyridazin-3-yl)amino)-4-((2-(methylsulfonyl)phenyl)amino)-1,2-dihydro-3H-pyrazolo[3,4-b]pyridin-3-one] was 0.1 to 0.5 nM. Take `COCc1ccnc(Nc2cc(Nc3ccccc3S(C)(=O)=O)c3c(=O)n(C)[nH]c3n2)c1` [Compound I-110, 6-((4-(methoxymethyl)pyridin-2-yl)amino)-2-methyl-4-((2-(methylsulfonyl)phenyl)amino)-1,2-dihydro-3H-pyrazolo[3,4-b]pyridin-3-one]: the Kd lay in the range of 1 to 10 nM. Regarding `Cc1ccc(Nc2cc(Nc3ccccc3S(C)(=O)=O)c3c(=O)n(C)[nH]c3n2)nc1` [Compound I-111, 2-methyl-6-((5-methylpyridin-2-yl)amino)-4-((2-(methylsulfonyl)phenyl)amino)-1,2-dihydro-3H-pyrazolo[3,4-b]pyridin-3-one], the Kd is 0.1 to 0.5 nM. On to `Cn1[nH]c2nc(Nc3cccc(C#N)n3)cc(Nc3ccccc3S(C)(=O)=O)c2c1=O` [Compound I-112, 6-((2-methyl-4-((2-(methylsulfonyl)phenyl)amino)-3-oxo-2,3-dihydro-1H-pyrazolo[3,4-b]pyridin-6-yl)amino)picolinonitrile], for which the dissociation constant Kd was less than 0.1 nM.

Regarding `Cn1[nH]c2nc(Nc3cccc(C(F)(F)F)n3)cc(Nc3ccccc3S(C)(=O)=O)c2c1=O` [Compound I-113, 2-methyl-4-((2-(methylsulfonyl)phenyl)amino)-6-((6-(trifluoromethyl)pyridin-2-yl)amino)-1,2-dihydro-3H-pyrazolo[3,4-b]pyridin-3-one], the Kd was in the range of 0.1 to 0.5 nM.

These data come from patent US10323036B2 (Nimbus Lakshmi, Inc., priority 2016, dated 2019).
